Measured values published in patent publication US20130209439A1, “INHIBITORS OF PDE4 BINDING TO HSP20” (THE UNIVERSITY COURT OF THE UNIVERSITY OF GLASGOW, priority 2010, published 2013).

T1: His-Hsp20 (Homo sapiens, UniProt O14558)
T1 construct: made in house; host or cells: E. coli BL21
T1 sequence (O14558 1-160): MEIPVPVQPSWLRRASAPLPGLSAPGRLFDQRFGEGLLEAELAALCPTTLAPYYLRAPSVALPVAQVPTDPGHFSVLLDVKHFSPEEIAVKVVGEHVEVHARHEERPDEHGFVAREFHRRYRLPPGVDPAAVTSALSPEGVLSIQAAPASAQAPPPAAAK

T2: His-HSP20 (purified recombinant His-tagged HSP20) (human, UniProt O14558 1-160)
T2 construct: Expressed in E. coli BL21 from pET28c and purified on nickel; also called HSP20-His; HSP20-6His; not shown: His tag from the pET28c vector
T2 sequence: T1 sequence (O14558 1-160)

B1: 25mer peptide 94 of the PDE4D5 peptide array (peptide)
peptide: VLENHHLAVGFKLLQEENCDIFQNL
notes: peptides 93 to 96 span Y461-K500; SPOT-immobilised; also called spot 94
B2: 25mer peptide 93 of the PDE4D5 peptide array (peptide)
peptide: YNDSSVLENHHLAVGFKLLQEENCD
notes: peptides 93 to 96 span Y461-K500; SPOT-immobilised; also called spot 93
B3: 25mer peptide 95 of the PDE4D5 peptide array (peptide)
peptide: HLAVGFKLLQEENCDIFQNLTKKQR
notes: peptides 93 to 96 span Y461-K500; SPOT-immobilised; also called spot 95
B4: 25mer peptide 96 of the PDE4D5 peptide array (peptide)
peptide: FKLLQEENCDIFQNLTKKQRQSLRK
notes: peptides 93 to 96 span Y461-K500; SPOT-immobilised; also called spot 96

How the values were obtained:
[1] = test system: Phospho-Ser16 HSP20 in neonatal cardiac myocytes; assay: Ser16 phosphorylation of endogenous HSP20 in neonatal cardiac myocytes (Western blot); format: cell-based, rat; details: cardiomyocytes, stimulated with isoproterenol alone or with PKA inhibitor pre-treatment; data not shown
Method: FIG. 2. The phosphorylation of HSP20 at Ser16 is modulated by PDE4 activity in cardiac myocytes. A, Neonatal cardiac myocytes were treated with isoprenaline for indicated times with or without pre-treatment with the PDE4-specific inhibitor, rolipram. Cellular lysates were blotted for HSP20 and Phospho-Ser16 HSP20. B, Quantifications of data from FIG. 2A (n=3). * Denotes significance at a level p<0.05 over iso treatment.
(§1) HEK293B2 cells are a stable cell line overexpressing the GFP-tagged β2AR were cultured as previously described^48. HEK293B2 cells were transiently transfected with wild type HSP20 or a phosphorylation defective HSP20 (S16A) or a phosphorylation mimic HSP20 (S16D). Neonatal cardiac myocytes were prepared and cultured as previously described^30. Cell lysis, immunopurification and western blotting was done as described before by us in some detail^48. Briefly, HEK 293 cells were transiently transfected with wild-type HSP20 by using Polyfect Transfection Reagent (Qiagen). Transfected HEK 293 cells were treated with 10 μM bs906 or 10 μM control peptide for 0, 15, 30, 60 and 120 min. Control and treated transfected HEK 293 cells were then washed thrice with ice cold PBS (phosphate buffered saline) before cellular lysates were prepared. Cellular lysates were prepared in lysis buffer containing 25 mM Hepes, pH 7.5, 2.5 mM EDTA, 50 mM NaCl, 50 mM NaF, […], 10% (v/v) glycerol, 1% (v/v) Triton X-100 and Complete™ EDTA-free protease inhibitor cocktail tablets (Roche). Protein concentration of lysates were determined using the Bradford assay and all samples were equalised for protein concentration. Proteins were separated by SOS/PAGE (4-12% Bis-Tris gels) and transferred onto nitrocellulose membranes for Western blotting. Antibodies were used to detect phospho-proteins and native proteins in lysates from control and treated cells
To determine whether inhibition of PDE4 activity had similar effects on endogenous phospho-HSP20 levels in heart cells, similar experiments were undertaken using neonatal cardiomyocytes (FIG. 2).

[2] = test system: Phospho-Ser16 HSP20 in HEKB2 cells; assay: Ser16 phosphorylation of HSP20 in HEKB2 cells overexpressing HSP20 (Western blot); format: cell-based; details: HEKB2 cells, stimulated with isoproterenol alone; data not shown
Method: FIG. 1. The phosphorylation of HSP20 at Ser16 is modulated by PDE4 activity in HEKB2 cells. A, HEKB2 cells overexpressing HSP20 or HSP20 ser16-Ala mutant were treated with isoprenaline for indicated times. Cellular lysates were blotted for HSP20 and Phospho-Ser16 HSP20. B, HEKB2 cells overexpressing HSP20 were treated with isoprenaline for indicated times, Cellular lysates were blotted for HSP20 and Phospho-Ser16 HSP20. C, HEKB2 cells overexpressing HSP20 were treated with isoprenaline for indicated times following pre-treatment with the PDE4-specific inhibitor, rolipram. Cellular lysates were blotted for HSP20 and Phospho-Ser16 HSP20. D, Quantifications of data from FIGS. 1B and 1C (n=4). * Denotes significance at a level p<0.05 E, Lysate from untransfected HEKB2 cells was blotted for HSP20 and Phospho-Ser16 HSP20.
as §1
In contrast to this, when we transfected these cells with a phospho-null mutant form, Ser16Ala-Hsp20, then no such change was observed (FIG. 1A). In order to evaluate whether PDE4 activity played a role in regulating this phosphorylation process in Hsp20-transfected HEKB2 cells, cells that had either been pre-treated or not with the PDE4 selective inhibitor rolipram were subsequently challenged with isoprenaline (1 μM) (FIGS. 1B and C). […] Endogenous levels of phospho-HSP20 or HSP20 were not detectable in HEKB2 cells (FIG. 1E).

[3] = test system: pS16-Hsp20 in SH-SY5Y cells; assay: Cell based Hsp20-PDE4D disruptor assay, nucleofected SH-SY5Y cells, pS16-Hsp20 Western blot; design: species or system human; details: SH-SY5Y cells nucleofected with 500 μM peptide, 2 hours
Method: FIG. 9. Disrupter induced HSP20 phosphorylation SH-SY5Y cells nucleofected with 500 μM of each peptide and incubated for 2 hours prior to harvesting. Each assay was blotted for Hsp20, pS16-Hsp20 and tubulin. Changes in levels of phospho-Hsp20 relative to DMSO only controls were quantified through densitometry analysis and each assay was normalised to α-tubulin loading control. The results are the average of three separate experiments and error bars represent SEM. *=p<0.05, **=p<0.01 compared to DMSO only controls (Student-T-test)
SDS-PAGE analysis was done on NuPage® pre-cast gels X-cell apparatus (Invitrogen, Paisley) using MES-SDS running buffer, Samples were reduced in Laemmli 2× loading buffer (4% SOS) with 5% β-mercaptoethanol. For Western Blotting (WB) analysis, samples were transferred using NuPage® X-cell blotting module onto a nitrocellulose membrane. Membranes were blocked using 5% Milk in 1×TBST (w/v). Antibodies were incubated in 1% milk in 1×TBST (w/v) for either 1 hour at room temperature or overnight at 4° C. Signals were detected using enhanced chemiluminescence system (Pierce) and developed on an X-omat film developer. Subsequent densitometry analysis was carried out using Quantity One (Bio-Rad).
SH-SY5Y cells (ATCC-CRL-2266) were grown in Dulbecco's Modified Eagle's Medium (DMEM) and F12-Ham's at a 1:1 ratio, media was supplemented with 10% (v/v) fetal bovine serum (FBS), 1% (v/v) L-Glutamine, 1% (v/v) Minimum Essential Medium—With Non-essential Amino Acids (MEM-NAA) and 1% (v/v) Pen/strep. Cells were cultured in a humidified, 5% (v/v) CO2, 37° C. incubator.
SH-SY5Y cells were nucleofected using Cell Line Nucleofector® Kit-V in accordance with manufacturers protocol (Amaxa Biosystems). Setting A-23 on the Nucleofector I device was used which increases cell viability. For each assay, 500 μM of disrupter peptide was incubated with 100 μl of nucleofection solution containing approximately 2×10^6 cells. After nucleofection cells were re-suspended in 500 μl of culture media before being transferred to a 6 well plate with a final volume of 2 ml per well. Cells were incubated for 2 hours prior to harvesting with […] containing protease and phosphatase inhibitors (Roche).
As the cell permeability of the peptides is unknown we used an electroporation technique to introduce the peptides into the SH-SY5Y cells. The Amaxa cell-line specific Nucleofector Kit V (Lonza) was used to transfect the peptides into the cells. […] Each assay used a final concentration of 500 μM of peptide in nucleofector solution containing approximately 2×10^6 SH-SY5Y cells. As peptides were dissolved in 100% DMSO, control transfections with DMSO only were used to compare any changes in phospho-Hsp20 levels. After each transfection the solution was reconstituted in culture media and incubated for 2 hours to allow for cell adhesion prior to the harvesting of viable cells.

His-Hsp20 = biological target: T1, His-Hsp20; assay: SPOT peptide array overlaid with His-Hsp20; format: binding; details: overlay with 10 μg/ml purified His-Hsp20
Method: A variety of peptides were generated and SPOT-synthesised onto slides which were then overlaid with 10 μg/ml of purified His-Hsp20. Interaction with peptides and Hsp20 was evaluated by probing slides with anti-His or Hsp20 antibodies and analysed using enhanced chemi-luminescence techniques, Negative controls used anti-His antibody only with no overlay of His-Hsp20 protein (data not shown). Positive interaction domains were then subjected to further rounds of truncations and key endogenous residues were substituted for non-native residues to ascertain what effects this would have in the binding of Hsp20.
This was done as described in detail elsewhere^41.
PDE4 isoform localisation invariably depends on protein-protein interactions, with PDE4s shown to associate with a diverse group of interacting partners such as RACK1^32, 36, βarrestin^36, β1-Ar^37, DISC1^38, the p75 neurotrophin receptor^39 and the cardiac IKs potassium channel^40. One method that has been pivotal in mapping the sites of association between PDE4s and their binding partners is peptide array^36. SPOT immobilised peptide libraries of PDE4 sequences have been utilised to accurately predict binding domains for partner proteins. Here we have employed this novel technique to define the HSP20 binding site within the sequence of PDE4D5, an isoform that is endogenously expressed in cardiomyocytes. Peptide arrays of overlapping 25-mer peptides, sequentially shifted by 5 amino acids and spanning the entire sequence of PDE4D5, were incubated with purified recombinant HSP20-6his. Dark spots represent positive areas of HSP20 interaction whereas clear spots are negative for the association (FIG. 4A). While no signal was observed when the arrays were overlaid with BSA, positive signals were obtained for 25mer peptides 93 to 96 following HSP20-6His overlay. Peptides 93 to 96 span the amino acid sequence Y^461-K^500 within the conserved catalytic domain of PDE4D5 (FIG. 4A: middle panels). […]

[4] = biological target: T2, His-HSP20 (purified recombinant …); assay: PDE4D5 peptide array overlaid with HSP20-6His
Source text: PDE4 isoform localisation invariably depends on protein-protein interactions, with PDE4s shown to associate with a diverse group of interacting partners such as RACK1^{32, 36}, βarrestin³⁶, β₁-Ar³⁷, DISC1³⁸, the p75 neurotrophin receptor³⁹ and the cardiac IKs potassium channel⁴⁰. […] Dark spots represent positive areas of HSP20 interaction whereas clear spots are negative for the association (FIG. 4A).

| Molecule | pS16-Hsp20 levels relative to DMSO only controls [3] | binding of Hsp20 to peptide on array (His-Hsp20) | binding result [4] | also measured |
| --- | --- | --- | --- | --- |
| CCCCCCOC(=O)[C@]1(O)C[C@@H]2O[C@@]1(C)n1c3ccccc3c3c4c(c5c6ccccc6n2c5c31)C(=O)NC4 [KT5720] |  |  |  | HSP20 phosphorylation after PKA inhibitor pre-treatment [1]: markedly attenuated HSP20 phosphorylation; HSP20 phosphorylation after PKA inhibitor pre-treatment [2]: markedly attenuated HSP20 phosphorylation |
| O=S(=O)(NCCNC/C=C/c1ccc(Br)cc1)c1cccc2cnccc12 [Peptide H89, H89] |  |  |  | HSP20 phosphorylation after PKA inhibitor pre-treatment [1]: markedly attenuated HSP20 phosphorylation; HSP20 phosphorylation after PKA inhibitor pre-treatment [2]: markedly attenuated HSP20 phosphorylation |
| Ac-FQNLTR-NH2 [Peptide 5] | inability | shown to bind HSP20 |  |  |
| Ac-GFK-NH2 (Ac-Gly-Phe-Lys-NH2) [Peptide 17] | indistinguishable from DMSO only controls | shortest size |  |  |
| Ac-KLL-NH2 (Ac-Lys-Leu-Leu-NH2) [Peptide 10] | indistinguishable from DMSO only controls | shortest size |  |  |
| B1 |  |  | binds |  |
| B2 |  |  | binds |  |
| B3 |  |  | binds |  |
| B4 |  |  | binds |  |
